From article PMC5467316, “Antiviral Activity of Fridericia formosa (Bureau) L. G. Lohmann (Bignoniaceae) Extracts and Constituents” (Journal of Tropical Medicine, 2017)
Like-named read-outs stand apart in the source and are kept apart here.

Assays:
[1] = system: hepatitis B surface antigen (HBsAg); parameters: method as in PMID 23576173; settings: cited from earlier work
[2] = system: hepatitis B antigen (HBeAg); parameters: method as in PMID 23576173; settings: cited from earlier work
[3] = Cytotoxicity assay (MTT), Vero cells; assay type: cell-based; settings: African green monkey
[4] = Cytotoxicity assay (MTT), LLCMK2 cells; assay type: cell-based; settings: rhesus monkey
[5] = system: human herpes virus 1 (HSV-1); experiment: microbe, parasite or virus in culture; assay type: cell-based; settings: for EC50: Human alphaherpesvirus 1, 48 h; for antiviral activity against HSV-1 (in words): statement in text
[6] = system: vaccinia virus Western Reserve (VACV-WR); experiment: microbe, parasite or virus in culture; assay type: cell-based; settings: for EC50: Vaccinia virus Western Reserve, 48 h; for antiviral activity against VACV-WR (in words): statement in text
[7] = system: murine encephalomyocarditis virus (EMCV); assay type: cell-based; settings: statement in text
[8] = system: dengue virus type 2 (DENV-2); experiment: microbe, parasite or virus in culture; assay type: cell-based; settings: for antiviral activity against DENV-2 (in words): statement in text; for EC50: Dengue virus, DENV2, 72 h
HSV-1 = system: HSV-1; parameters: method as in PMID 16350858; settings: previously reported; read-out: EC50 against HSV-1; cited from earlier work
[9] = parameters: method as in PMID 14977449; settings: clinical tests; cited from earlier work
HIV-1 replication = system: HIV-1 replication; parameters: method as in PMID 24066838, PMID 21610656; settings: dose dependent manner; cited from earlier work
Enterovirus 71 = system: Enterovirus 71; parameters: method as in PMID 24679044; settings: in vitro; read-out: EC50 against Enterovirus 71; cited from earlier work
Vero cells = system: Vero cells; parameters: method as in PMID 24679044; settings: cited from earlier work
[10] = read-out: HSV-1 EC50 (value in parentheses)
[11] = read-out: VACV-WR EC50 (value in parentheses), viral titer TCID50/mL 1.0 × 10^6 in 48 h, MTT, concentration in µM
[12] = read-out: VACV-WR EC50, viral titer TCID50/mL 1.0 × 10^6 in 48 h, MTT

Molecule: COc1cc(O)c2c(=O)c3c(O)ccc(O)c3oc2c1 [1,5,8-trihydroxy-3-methoxyxanthone]
- EC50 [1]: > 980 µM
- EC50 [2]: 350 µM

Molecule: O=c1c2cc(O)ccc2oc2cc(O)c([C@@H]3O[C@H](CO)[C@@H](O)[C@H](O)[C@H]3O)c(O)c12 [2-C-β-D-glucopyranosyl-1,3,7-trihydroxyxanthone]
- EC50 [1]: 210 µM
- EC50 [2]: 40 µM

Molecule: Nc1nc2c(ncn2COCCO)c(=O)[nH]1 [Acyclovir, reference compound]
- CC50 ([3]; MTT, exposure 48 and 72 h, read-out: Vero CC50): > 1000 µg/mL
- CC50 ([4]; MTT, exposure 48 and 72 h, read-out: LLCMK2 CC50): > 1000 µg/mL

Molecule: O=c1cc(-c2ccccc2)oc2cc(O)cc(O)c12 [Chrysin (4), 5,7-Dihydroxy-2-phenyl-4H-1-benzopyran-4-one]
- CC50 [3]: > 500 µg/mL
- CC50 [4]: > 500 µg/mL
- EC50 ([5]; read-out: HSV-1 EC50): > 100 µg/mL
- EC50 [5, 10]: 576 µM
- antiviral activity against HSV-1 (in words) [5]: low activity
- EC50 [6, 11]: 486 µM
- EC50 [6, 12]: > 100 µg/mL
- antiviral activity against VACV-WR (in words) [6]: low activity
- VACV-WR EC50 ([6]; viral titer TCID50/mL 1.0 × 10^6 in 48 h, MTT): 123.5 ± 10.5 µg/mL
- antiviral activity against EMCV (in words) [7]: did not inhibit the replication cycle
- antiviral activity against DENV-2 (in words) [8]: did not inhibit the replication cycle
- EC50 (HSV-1): 2.5 µM
- effect on testosterone levels in men (in words) [9]: no effect

Molecule: O=c1c2cc(O)c(O)cc2oc2cc(O)c([C@@H]3O[C@H](CO)[C@@H](O)[C@H](O)[C@H]3O)c(O)c12 [Mangiferin (1), 2-β-D-Glucopyranosyl-1,3,6,7-tetrahydroxy-9H-xanthen-9-one]
- CC50 [3]: > 500 µg/mL
- CC50 [4]: > 500 µg/mL
- EC50 ([5]; read-out: HSV-1 EC50): 268 µg/mL
- EC50 [5, 10]: 635 µM
- antiviral activity against HSV-1 (in words) [5]: low antiviral effect
- antiviral activity against HSV-1 (in words) ([5]; listed as mangiferin): practically inactive
- EC50 [6, 11]: 432 µM
- EC50 [6, 12]: 183 ± 14.3 µg/mL
- antiviral activity against VACV-WR (in words) [6]: low antiviral effect
- antiviral activity against VACV-WR (in words) ([6]; listed as mangiferin): practically inactive
- antiviral activity against EMCV (in words) [7]: low antiviral effect
- antiviral activity against EMCV (in words) ([7]; listed as mangiferin): practically inactive
- EC50 ([8]; read-out: DENV-2 EC50): 266 µg/mL
- EC50 ([8]; read-out: DENV-2 EC50 (value in parentheses)): 629 µM
- antiviral activity against DENV-2 (in words) [8]: low antiviral effect
- antiviral activity against DENV-2 (in words) ([8]; listed as mangiferin): practically inactive
- inhibitory activity on HIV-1 replication (in words) (HIV-1 replication): good inhibitory activity

Molecule: O=c1c2c(O)cc(O)cc2oc2c(O)ccc(O)c12 [norbellidifolin]
- EC50 [1]: 770 µM
- EC50 [2]: < 620 µM

Molecule: euxanthone
- EC50 (Enterovirus 71): 12.2 µM
- CC50 (Vero cells): 36.6 µM
